# Laboratory results published in patent US9657081B2, “Inhibiting peptides derived from triggering receptor expressed on myeloid cells-1 (TREM-1) TREM-like transcript 1 (TLT-1) for treatment of cardiovascular diseases” (INSERM (Institut National de la Sante et de la Recherche …, priority 2013, dated 2017).
# Legend:
# TREM-1 [1] = assay: Monkey model of endotoxin (LPS) infusion: blood pressure monitoring; assay type: in vivo, cynomolgus monkey (Macaca fascicularis)
# Method: Male cynomolgus monkeys (Macaca fascicularis) (2.8 to 3.5 kg, 24 months old, Le Tamarinier, La Route Royale, Tamarin, Mauritius) were used. Animals were fasted the day before LPS challenge but with full access to water. CIToxLAB France Ethical Committee (CEC) reviewed and approved all study plans (Nr CEC: 02221).
# Vital signs and weight were recorded the day before LPS challenge. The next morning, baseline clinical laboratory samples were collected, and a baseline set of vital signs was recorded. The drug was administered into the cephalic or saphenous vein via a Teflon catheter. Contralateral vein was used for LPS administration.
# Monkeys were randomized to receive LR12 or placebo (n=6 per group). An additional group of 4 was constituted to only receive vehicle (NaCl 0.9%) infusion and served as the control group.
# At time point 0, a 15 mins intravenous infusion of LR12 or placebo solution was begun, at the rate of 12 mL/h (5 mg/kg, 10 mins, 2 mL), delivered by a calibrated syringe pump (Harvard Apparatus). A continuous infusion was then administered for further 8 hours at the rate of 2 mL/h (1 mg/kg/h, 8 hours, 16 mL). Just before treatment infusion, an intravenous bolus of LPS (10 μg/kg) was administered over the course of a 10 mins period into the contralateral catheter. Animals remained awake in an upright position in a restraint chairs and continued to fast from food for the whole study duration.
# Pulse rate, and blood pressure were monitored every 15 mins for 1 hour, then every 30 mins for 7 hours.
# TREM-1 [2] = biological target: T1, TREM-1 (Mus musculus, UniProt Q9JKE2); assay: Mouse myocardial infarction, myocardial inflammatory reaction and protease activity in infarcted tissue; assay type: in vivo; settings: myocardium after coronary artery ligation
# T1 construct: endogenous in cells; host or cells: living mice (C57BL, Balb/c, ApoE-/-), in vivo
# T1 sequence (Q9JKE2 21-230): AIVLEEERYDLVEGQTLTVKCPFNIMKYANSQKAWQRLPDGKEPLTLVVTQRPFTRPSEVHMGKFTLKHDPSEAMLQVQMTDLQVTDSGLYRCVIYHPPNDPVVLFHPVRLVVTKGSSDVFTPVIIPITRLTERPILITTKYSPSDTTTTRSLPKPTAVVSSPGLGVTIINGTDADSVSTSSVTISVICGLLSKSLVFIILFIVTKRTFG
# Method: For these experiments, myocardial lysate was obtained 24 hours after the induction of myocardial infarction from mice treated with TREM-1- and TLT-1-derived peptides or control LR12-scrambled peptide (‘controls’). Two areas were studied: a healthy area harvested distally from the infarcted zone in a control animal and an infarcted area. Data are representative of at least 5 different experiments. Results are mean±SD. p values are *p<0.001 [LR12 versus controls].
# For these experiments, myocardial lysate was obtained 6, 24 and/or 96 hours after the induction of myocardial infarction from mice treated with TREM-1- and TLT-1-derived peptides or control LR12-scrambled peptide (‘controls’). Infarcted areas were analyzed for cytokine/chemokine production. Data are representative of at least 5 different experiments. p values are *p<0.001 [LR12 versus controls].
# For these experiments, myocardial lysate was obtained 6, 24 and 96 hours after the induction of myocardial infarction from mice treated with TREM-1- and TLT-1-derived peptides or control LR12-scrambled peptide (‘controls’). Infarcted areas were analyzed. […]
# Mice were monitored after surgery for mortality. Mice were randomized to receive or not peptides (daily ip injection for 5 days, 5 mg/kg) and monitored for survival. […]
# MMP-9 enzymatic activity in tissue extracts was determined by SDS-PAGE gelatin zymography. […]
sequence,measurement,setting,value
LQEEDAGEYGCM (listed as Homo sapiens) [TLT1-LR12],arterial pressure / hypotension after LPS challenge,TREM-1 [1]; LPS 10 μg/kg,never went hypotensive
same,Heart rate after LPS injection,"TREM-1 [1]; LPS 10 μg/kg, 5 mg/kg then 1 mg/kg/h for 8 hours i.v.",no effects
same,"body temperature increase after LPS, difference between placebo (LR12scr) and LR12-treated animals",TREM-1 [1]; between H1 and H2,not significant
same,myocardial infarction-induced gene activation (innate immunity / endothelial function genes),TREM-1 [2],opposed to myocardial infarction-induced gene activation
